The target in experiment [1] is recombinant CD73 (Homo sapiens (Human), UniProt P21589). Briefly: Inhibition of the CD73 enzyme in vitro (soluble recombinant CD73, Malachite Green). The experiment is classed as biochemical. The conditions noted are these: recombinant CD73 0.5 nM, AMP 50 μM, 30 minutes at room temperature. How it is done:
The concentration of inorganic phosphate was determined using a phosphate standard curve.

Experiment [2] deals with endogenous, cell-bound CD73 on SK-MEL-28 cells (Homo sapiens (Human), UniProt P21589). In words: Inhibition of endogenous, cell-bound CD73 enzyme activity in SK-MEL-28 cells (Malachite Green). The experiment is classed as cell-based. The conditions noted are these: 100 μM AMP, 30 minutes at room temperature. How it is done: The day before the experiment, 5000 cells were plated per well in a 96-well plate. Cells were washed twice with […] reaction buffer (20 mM HEPES, pH 7.4, 125 mM NaCl, 1 mM KCl, 2 mM MgCl2, 10 mM glucose) to remove residual inorganic phosphate. After washing, assays contained serial dilutions of test compounds and 100 μM of AMP in a total volume of 200 μL reaction buffer, with a final DMSO concentration≤0.5%. After 30 minutes at room temperature, supernatant was removed from the cells. […] The concentration of inorganic phosphate was determined using a phosphate standard curve to determine IC50.
Sequence of endogenous, cell-bound CD73 on SK-MEL-28 cells (P21589 27-574): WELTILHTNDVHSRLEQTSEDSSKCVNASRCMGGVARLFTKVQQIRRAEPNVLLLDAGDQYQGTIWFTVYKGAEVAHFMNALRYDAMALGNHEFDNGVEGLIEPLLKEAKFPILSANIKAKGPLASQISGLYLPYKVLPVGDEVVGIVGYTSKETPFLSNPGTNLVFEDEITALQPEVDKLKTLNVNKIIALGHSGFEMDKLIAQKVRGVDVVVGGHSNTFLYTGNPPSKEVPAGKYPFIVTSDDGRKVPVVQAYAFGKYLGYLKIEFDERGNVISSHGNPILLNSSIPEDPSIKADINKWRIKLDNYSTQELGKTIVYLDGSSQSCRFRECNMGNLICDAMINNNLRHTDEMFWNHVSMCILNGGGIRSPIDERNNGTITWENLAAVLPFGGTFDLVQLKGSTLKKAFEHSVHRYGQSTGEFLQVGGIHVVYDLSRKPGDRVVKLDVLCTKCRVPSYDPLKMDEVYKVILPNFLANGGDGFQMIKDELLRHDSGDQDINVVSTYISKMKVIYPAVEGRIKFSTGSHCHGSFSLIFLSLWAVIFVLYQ

Sequence of recombinant CD73 (P21589 27-547): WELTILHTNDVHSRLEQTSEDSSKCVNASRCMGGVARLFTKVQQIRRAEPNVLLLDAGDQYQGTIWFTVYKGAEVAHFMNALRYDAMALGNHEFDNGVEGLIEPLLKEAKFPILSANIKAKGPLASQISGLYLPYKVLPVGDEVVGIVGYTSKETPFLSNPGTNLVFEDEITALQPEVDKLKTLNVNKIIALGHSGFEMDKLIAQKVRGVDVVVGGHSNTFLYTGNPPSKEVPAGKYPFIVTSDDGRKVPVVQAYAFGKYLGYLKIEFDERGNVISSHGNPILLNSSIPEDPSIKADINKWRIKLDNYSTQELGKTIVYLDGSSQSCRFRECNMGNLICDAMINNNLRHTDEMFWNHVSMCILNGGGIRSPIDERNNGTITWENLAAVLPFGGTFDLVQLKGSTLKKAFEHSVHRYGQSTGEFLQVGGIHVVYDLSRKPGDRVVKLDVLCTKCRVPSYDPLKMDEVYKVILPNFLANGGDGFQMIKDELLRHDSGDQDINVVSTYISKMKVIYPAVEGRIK

Consider `COC(=O)c1ccc(CC(OC[C@H]2O[C@@H](n3cnc4c(N)nc(Cl)nc43)[C@@H](F)[C@@H]2O)(C(=O)O)C(=O)O)cc1` [compound 91, 2-(((2R,3R,4S,5R)-5-(6-amino-2-chloro-9H-purin-9-yl)-4-fluoro-3-hydroxytetrahydrofuran-2-yl)methoxy)-2-(4-(methoxycarbonyl)benzyl)malonic acid], for which the concentration for half-maximal inhibition (IC50) in experiment [1] was 322 nM. As to `Nc1nc(Cl)nc2c1ncn2[C@@H]1O[C@H](COC(Cc2ccc(C(=O)O)cc2)(C(=O)O)C(=O)O)[C@@H](O)[C@@H]1F` [compound 7, 2-(((2R,3R,4S,5R)-5-(6-amino-2-chloro-9H-purin-9-yl)-4-fluoro-3-hydroxytetrahydro-furan-2-yl)methoxy)-2-(4-carboxybenzyl)-malonic acid], the IC50 is 121 nM in experiment [1] and 257 nM in experiment [2].

Consider `Cc1cn([C@H]2C[C@H](O)[C@@H](COC(C(=O)O)C(=O)O)O2)c(=O)[nH]c1=O` [compound 14, 2-(((2R,3S,5R)-3-hydroxy-5-(5-methyl-2,4-dioxo-3,4-dihydropyrimidin-1(2H)-yl)tetrahydrofuran-2-yl)methoxy)malonic acid], for which, in experiment [1], the concentration for half-maximal inhibition (IC50) was greater than 50000 nM. In experiment [2], `Nc1nc(Cl)nc2c1ncn2[C@@H]1O[C@H](COC(Cc2cccc(-c3nnn[nH]3)c2)(C(=O)O)C(=O)O)[C@@H](O)[C@@H]1F` [compound 53, 2-(3-(1H-tetrazol-5-yl)benzyl)-2-(((2R,3R,4S,5R)-5-(6-amino-2-chloro-9H-purin-9-yl)-4-fluoro-3-hydroxytetrahydrofuran-2-yl)methoxy)malonic acid] yielded a 50% inhibitory concentration (IC50) of 2600 nM. The same measure, in the same setting: the same measure for `Nc1nc(Cl)nc2c1ncn2[C@@H]1O[C@H](COC(Cc2ccc(OCC(F)(F)F)cc2)(C(=O)O)C(=O)O)[C@@H](O)[C@@H]1F` [compound 89, 2-(((2R,3R,4S,5R)-5-(6-amino-2-chloro-9H-purin-9-yl)-4-fluoro-3-hydroxytetrahydrofuran-2-yl)methoxy)-2-(4-(2,2,2-trifluoroethoxy)benzyl)malonic acid]: 70 nM; for `Nc1nc(Cl)nc2c1ncn2[C@@H]1O[C@H](COC(Cc2ccc(C(=O)O)s2)(C(=O)O)C(=O)O)[C@@H](O)[C@@H]1F` [compound 77, 2-(((2R,3R,4S,5R)-5-(6-amino-2-chloro-9H-purin-9-yl)-4-fluoro-3-hydroxytetrahydro-furan-2-yl)methoxy)-2-((5-carboxythiophen-2-yl)methyl)malonic acid]: 1330 nM. As to `Cn1nc(CC(OC[C@H]2O[C@@H](n3cnc4c(N)nc(Cl)nc43)[C@@H](F)[C@@H]2O)(C(=O)O)C(=O)O)cc1C(=O)O` [compound 73, 2-(((2R,3R,4S,5R)-5-(6-amino-2-chloro-9H-purin-9-yl)-4-fluoro-3-hydroxytetrahydrofuran-2-yl)methoxy)-2-((5-carboxy-1-methyl-1H-pyrazol-3-yl)methyl)malonic acid], the IC50 in experiment [1] amounted to 8610 nM; in experiment [2] it was 1240 nM.

Values taken from patent US10472364B2 (Calithera Biosciences, Inc., priority 2016, dated 2019).
